Paper PMC9154192 (PLoS Biology, 2022)
Several values for one entry are separate records, joined by “and”; a condition that tells them apart may be missing. Equal values may be shown once. Read-outs that look alike come from different tables or passages of the source.

Key:
[1] = Acute oral toxicity test in mice; type: in vivo, BALB/c mice; details: single oral, 5 mice; for Deaths of mice, Days after dosing 0: day 0; for Deaths of mice, Days after dosing 1: day 1; for Deaths of mice, Days after dosing 2: day 2; for Deaths of mice, Days after dosing 3: day 3; for Deaths of mice, Days after dosing 4: day 4; for Deaths of mice, Days after dosing 5: day 5; for Deaths of mice, Days after dosing 6: day 6; for Deaths of mice, Days after dosing 7: day 7; for Deaths of mice, Days after dosing 8: day 8; for Deaths of mice, Days after dosing 9: day 9; for Deaths of mice, Days after dosing 10: day 10; for Deaths of mice, Days after dosing 11: day 11; for Deaths of mice, Days after dosing 12: day 12; for Deaths of mice, Days after dosing 13: day 13; for Deaths of mice, Days after dosing 14: day 14
Experimental: This experiment was conducted in a toxicity test at Soonchunhyang University's Animal Biological Safety Level 2 (ABSL-2) facility. The study protocol was reviewed and approved by Soonchunhyang University Animal Ethics Committee. Six-week-old female BALB/c were purchased from Koatech (Pyeongtaek, Korea) and five mice per group were tested. Drugs were orally administered once using a zonde and observed for two weeks. Corn oil (Sigma, USA) was used as the vehicle.

M. tuberculosis H37Rv [2] = type: cell-based, Mycobacterium tuberculosis; details: for RFU/200 μl (replicates1-3), single values / RFU/ml (×104) / RFU/200 μl (average): Fig 2A
M. tuberculosis H37Rv [3] = type: in vivo, BALB/c mice; details: for Efficacy in BALB/C mouse model of pulmonary tuberculosis, Average: Fig 4A
M. tuberculosis H37Rv [4] = type: in vivo, BALB/c mice; set-up: Efficacy in BALB/C mouse model of pulmonary tuberculosis, Average / Efficacy in BALB/C mouse model of pulmonary tuberculosis, values of mice 1-6: unit not given here; details: Fig 4C
XDR M. tuberculosis = type: cell-based, Mycobacterium tuberculosis
[5] = type: in vivo, Crl:CD SD rats; details: single oral dose up to 2,000 mg/kg, SD rats, 2 weeks
Experimental: Toxicity studies were conducted at Biotoxtech (Korea) under review and approval from IACUC (170842, 180144, 170889) of Biotoxtech. All animals used in the toxicity test were purchased from OrientBio (Korea).
For acute toxicity study with a single oral administration, 6-week-old Crl:CD SD rats were used. For PP1S, a total of 8 groups (n = 4 rats/group) were used (0, 500, 1,000, and 2,000 mg/kg for females and males, respectively). For PP2S, a total of 4 groups (n = 5 rats/group) were used (0 and 2,000 mg/kg for females and males, respectively). […] Corn oil (Sigma, USA) was used as the vehicle. Control animals were treated only with the same volume of the vehicle.

With `COC(=O)[C@@H]1CCC(=O)N1Cc1cc2ccc(OC)cc2c2cc(OC)c(OC)cc12` [PP1S, (S)-N-[(2,3,6-Trimethoxy-10-phenanthryl)methyl]-pyroglutamic acid methyl ester] the “Deaths of mice, Days after dosing 0” value ([1]; Dose 500 mg/kg) was 0, the “Deaths of mice, Days after dosing 1” value ([1]; Dose 500 mg/kg) was 0 and the “Deaths of mice, Days after dosing 2” value ([1]; Dose 500 mg/kg) was 0. For the same molecule, the “Deaths of mice, Days after dosing 3” value ([1]; Dose 500 mg/kg) was 0, the “Deaths of mice, Days after dosing 4” value ([1]; Dose 500 mg/kg) was 0 and the “Deaths of mice, Days after dosing 5” value ([1]; Dose 500 mg/kg) was 0. For the same molecule, the “Deaths of mice, Days after dosing 6” value ([1]; Dose 500 mg/kg) was 0, the “Deaths of mice, Days after dosing 7” value ([1]; Dose 500 mg/kg) was 0 and the “Deaths of mice, Days after dosing 8” value ([1]; Dose 500 mg/kg) was 0. The “Deaths of mice, Days after dosing 9” value ([1]; Dose 500 mg/kg) was 0, the “Deaths of mice, Days after dosing 10” value ([1]; Dose 500 mg/kg) was 0 and the “Deaths of mice, Days after dosing 11” value ([1]; Dose 500 mg/kg) was 0. For the same molecule, the “Deaths of mice, Days after dosing 12” value ([1]; Dose 500 mg/kg) was 0, the “Deaths of mice, Days after dosing 13” value ([1]; Dose 500 mg/kg) was 0 and the “Deaths of mice, Days after dosing 14” value ([1]; Dose 500 mg/kg) was 0. The “Deaths of mice, Days after dosing 0” value ([1]; Dose 1000 mg/kg) was 0, the “Deaths of mice, Days after dosing 1” value ([1]; Dose 1000 mg/kg) was 0 and the “Deaths of mice, Days after dosing 2” value ([1]; Dose 1000 mg/kg) was 0. The “Deaths of mice, Days after dosing 3” value ([1]; Dose 1000 mg/kg) was 0, the “Deaths of mice, Days after dosing 4” value ([1]; Dose 1000 mg/kg) was 0 and the “Deaths of mice, Days after dosing 5” value ([1]; Dose 1000 mg/kg) was 0. The “Deaths of mice, Days after dosing 6” value ([1]; Dose 1000 mg/kg) was 0, the “Deaths of mice, Days after dosing 7” value ([1]; Dose 1000 mg/kg) was 0 and the “Deaths of mice, Days after dosing 8” value ([1]; Dose 1000 mg/kg) was 0. For the same molecule, the “Deaths of mice, Days after dosing 9” value ([1]; Dose 1000 mg/kg) was 0, the “Deaths of mice, Days after dosing 10” value ([1]; Dose 1000 mg/kg) was 0 and the “Deaths of mice, Days after dosing 11” value ([1]; Dose 1000 mg/kg) was 0. The “Deaths of mice, Days after dosing 12” value ([1]; Dose 1000 mg/kg) was 0, the “Deaths of mice, Days after dosing 13” value ([1]; Dose 1000 mg/kg) was 0 and the “Deaths of mice, Days after dosing 14” value ([1]; Dose 1000 mg/kg) was 0. The “Deaths of mice, Days after dosing 0” value ([1]; Dose 2000 mg/kg) was 0, the “Deaths of mice, Days after dosing 1” value ([1]; Dose 2000 mg/kg) was 0 and the “Deaths of mice, Days after dosing 2” value ([1]; Dose 2000 mg/kg) was 0. The “Deaths of mice, Days after dosing 3” value ([1]; Dose 2000 mg/kg) was 0, the “Deaths of mice, Days after dosing 4” value ([1]; Dose 2000 mg/kg) was 0 and the “Deaths of mice, Days after dosing 5” value ([1]; Dose 2000 mg/kg) was 0. The “Deaths of mice, Days after dosing 6” value ([1]; Dose 2000 mg/kg) was 0, the “Deaths of mice, Days after dosing 7” value ([1]; Dose 2000 mg/kg) was 0 and the “Deaths of mice, Days after dosing 8” value ([1]; Dose 2000 mg/kg) was 0. The “Deaths of mice, Days after dosing 9” value ([1]; Dose 2000 mg/kg) was 0, the “Deaths of mice, Days after dosing 10” value ([1]; Dose 2000 mg/kg) was 0 and the “Deaths of mice, Days after dosing 11” value ([1]; Dose 2000 mg/kg) was 0. The “Deaths of mice, Days after dosing 12” value ([1]; Dose 2000 mg/kg) was 0, the “Deaths of mice, Days after dosing 13” value ([1]; Dose 2000 mg/kg) was 0 and the “Deaths of mice, Days after dosing 14” value ([1]; Dose 2000 mg/kg) was 0. For the same molecule, the “RFU/200 μl (replicates1-3), single values” (shortened to “RFU/200 μl … single values”) (M. tuberculosis H37Rv [2]; drug conc. 0.39) was 59110 RFU/200 μl and 59240 RFU/200 μl and 59440 RFU/200 μl and 58960 RFU/200 μl and 59940 RFU/200 μl and 59150 RFU/200 μl and 59270 RFU/200 μl and 59190 RFU/200 μl and 59120 RFU/200 μl, the “RFU/ml (×104)” value (M. tuberculosis H37Rv [2]; drug conc. 0.39) was 29.6 RFU/ml (×104) and the “RFU/200 μl (average)” value (M. tuberculosis H37Rv [2]; drug conc. 0.39, average of each replicate set) was 59447 RFU/200 μl and 59203 RFU/200 μl and 59157 RFU/200 μl. For the same molecule, the “RFU/200 μl … single values” (M. tuberculosis H37Rv [2]; drug conc. 0.78) was 53920 RFU/200 μl and 54090 RFU/200 μl and 54550 RFU/200 μl and 54830 RFU/200 μl and 54570 RFU/200 μl and 54130 RFU/200 μl and 54320 RFU/200 μl and 54040 RFU/200 μl and 53950 RFU/200 μl, the “RFU/ml (×104)” value (M. tuberculosis H37Rv [2]; drug conc. 0.78) was 27.1 RFU/ml (×104) and the “RFU/200 μl (average)” value (M. tuberculosis H37Rv [2]; drug conc. 0.78, average of each replicate set) was 54650 RFU/200 μl and 54163 RFU/200 μl and 53987 RFU/200 μl. The “RFU/200 μl … single values” (M. tuberculosis H37Rv [2]; drug conc. 1.56) was 29900 RFU/200 μl and 30040 RFU/200 μl and 30750 RFU/200 μl and 30860 RFU/200 μl and 30640 RFU/200 μl and 28310 RFU/200 μl and 28580 RFU/200 μl and 28120 RFU/200 μl and 29920 RFU/200 μl, the “RFU/ml (×104)” value (M. tuberculosis H37Rv [2]; drug conc. 1.56) was 14.8 RFU/ml (×104) and the “RFU/200 μl (average)” value (M. tuberculosis H37Rv [2]; drug conc. 1.56, average of each replicate set) was 30750 RFU/200 μl and 28337 RFU/200 μl and 29953 RFU/200 μl. The “concentration with significant antitubercular effect” value (M. tuberculosis H37Rv [2]; fluorescence-based assay) was 1.56 µg/mL, the “Efficacy in BALB/C mouse model of pulmonary tuberculosis, Average” value (from here on “Efficacy in BALB/C mouse model”) (M. tuberculosis H37Rv [3]; group dose 15, 6 mice) was 4150 and the “Efficacy in BALB/C mouse model” value (M. tuberculosis H37Rv [3]; group dose 30, 6 mice) was 2508. For the same molecule, the “reduction of bacterial load in lungs compared to drug-free group” value (M. tuberculosis H37Rv [3]; mouse, in vivo) was “more than 90%”, the “granulomatous lesions in lung sections (HE staining)” value (M. tuberculosis H37Rv [3]; mouse, in vivo, po) was “limited number of small granulomatous lesions” and the “Efficacy in BALB/C mouse model” value (M. tuberculosis H37Rv [4]; group dose 30, 6 mice) was 2683333. For the same molecule, the “Efficacy in BALB/C mouse model” value (M. tuberculosis H37Rv [4]; group dose 100, 6 mice) was 1028333, the “growth of M. tuberculosis in macrophages (CFU)” value (XDR M. tuberculosis) was “significantly inhibited the growth” and the “change in body weight compared to control group” value [5] was “no significant change”. The “clinical symptoms and death” value [5] was “not observed”.
